Laboratory results taken from US20100166727A1, “S-Adenosylmethionine And Methylthioadensosine In Chemoprevention And Treatment Of Colon Polyps And Cancer” (UNIVERSITY OF SOUTHERN CALIFORNIA, priority 2007, published 2010).
Entries after “also recorded” stand apart in the source; their conditions may differ.

Assays:
[1] = system: MAT2A; test: MAT2A expression in NCM460 cells; type: cell-based, human; conditions: 5 mM SAMe or 1 mM MTA, 6 hrs
Experimental: Total RNA was isolated by the EZgeno total RNA isolation kit (Genemega, San Giego, Calif.), and subjected to reverse transcription (RT) by using M-MLV Reverse transcriptase (Invitrogen). 2 μl of RT product was subjected to quantitative real-time PCR analysis. The primers and TaqMan probes for MAT2A, MAT2β and Universal PCR Master Mix were purchased from ABI (Foster City, Calif.). Hypoxanthine phosphoribosyl-transferase 1 (HPRT1) and ubiquitin C (UBC) were used as housekeeping genes (48). The thermal profile consisted of 1 cycle at 95° C. for 15 minutes followed by 40 cycles at 95° C. for 15 seconds and at 60° C. for 1 minute. The expression of MAT2A and MAT2β was checked by normalizing the Ct of MAT2A and MAT2β to that of the control housekeeping gene (HPRT1 or UBC) (49). The delta Ct obtained was used to find the relative expression of MAT genes according to the formula: Relative expression=2·^ΔCt, where ΔCt=ΔCt of MAT genes in colon cancer or treated cells—ΔCt of MAT genes in normal colon or control cells.
NCM460 cell line was originally established in 1996 as the first non-malignant colonic epithelial cell line derived from the transverse colon (43). When first developed, cells formed both monolayer and in suspension, express villin and cytokeratin staining (43). […] The NCM460 cells in monolayer have features of transverse colon crypt cells (69). […]

[2] = system: HT-29 cells; test: Cellular SAMe and MTA levels in HT-29 cells; type: cell-based, human
Experimental: (§1) HT-29 and RKO cells were obtained from the Cell Culture Core of the USC Liver Disease Research Center and grown according to instructions provided by the American Type Culture Collection (ATCC, Rockville, Md.). Prior to treatment with growth factors, SAMe or MTA, medium was changed to 0.1% FBS overnight.
(§2) Cellular SAMe and MTA levels were measured (51) and polyamine levels were determined (52).

[3] = system: HT-29 cells; test: Polyamine levels in HT-29 cells; type: cell-based, human; conditions: 6 hrs
Experimental: as §1, §2

[4] = system: SPD syn; test: SPD syn expression by real-time PCR in HT-29 cells; type: cell-based, human; conditions: 6 hrs
[5] = system: c-FLIP; test: c-FLIP mRNA level by real-time PCR in HT-29 cells; type: cell-based, human; conditions: SAMe 2 mM, MTA 1 mM, 6 hrs, mean±SE
[6] = system: Bcl-xL; test: Bcl-xL mRNA level in HT-29 cells; type: cell-based, human; conditions: SAMe 2 mM, 6 hrs
Experimental: SAMe and MTA induce apoptosis in liver cancer cells by the mitochondrial pathway (14). […] In liver cancer cells, SAMe and MTA induced selectively expression of Bcl-xs, a pro-apoptotic protein (67). We examined whether the same occurs in HT-29 cells. After 6 hrs of MTA (1 mM) treatment, Bcl-xL mRNA level fell by 53% (47±4% of control, results are mean±SE from 4 experiments, p<0.0005). […] This makes these agents particularly attractive in targeting colon cancer cells.

[7] = Intestinal SAMe levels in mice given SAMe or MTA in drinking water; conditions: mouse, in vivo
Experimental: Three-month old male C57/B6 mice were fed ad libitum a standard diet (Harland Tekiad irradiated mouse diet 7912, Madison, Wis.), caged individually and had free access to water supplemented with SAMe ([…]), MTA (75 mg/kg/d), phosphate buffered saline (vehicle for SAMe) or DMSO (0.2%, vehicle for MTA) for 6 days. SAMe and MTA were made fresh daily. The amount of water intake, body weight, and animal behavior were closely monitored. After 6 days, animals were sacrificed, intestine was cut open along the longitudinal axis, and mucosa was stripped from the intestine (46). Mucosa was weighed and a portion processed for SAMe measurement as described below, the rest snap frozen for subsequent RNA extraction.
as §2

[8] = system: MAT2β; test: Colonic MAT2β mRNA in mice fed SAMe or MTA; type: in vivo; conditions: 150 mg/kg/d SAMe, 6 days
Experimental: FIG. 30. Effects of oral SAMe and MTA on colonic mRNA levels of MAT2A, MAT2 β, and […]. Mice were fed SAMe (150 to 450 mg/kg/d) or MTA (75 or 150 mg/kg/d) in drinking water for 6 days. Colonic mucosa was scrapped off and gene expression measured by real-time PCR.

[9] = Tolerability of oral SAMe and MTA in mice; type: in vivo; conditions: oral in drinking water, 6 days; weight gain and water consumption similar to controls
Source text: SAMe and MTA were made fresh daily. The amount of water intake, body weight, and animal behavior were closely monitored. After 6 days, animals were sacrificed, intestine was cut open along the longitudinal axis, and mucosa was stripped from the intestine (46). Mucosa was weighed and a portion processed for SAMe measurement as described below, the rest snap frozen for subsequent RNA extraction.

[10] = target: MAT III (Rattus norvegicus, UniProt P13444); conditions: cited from earlier work
Sequence of MAT III (P13444 whole entry): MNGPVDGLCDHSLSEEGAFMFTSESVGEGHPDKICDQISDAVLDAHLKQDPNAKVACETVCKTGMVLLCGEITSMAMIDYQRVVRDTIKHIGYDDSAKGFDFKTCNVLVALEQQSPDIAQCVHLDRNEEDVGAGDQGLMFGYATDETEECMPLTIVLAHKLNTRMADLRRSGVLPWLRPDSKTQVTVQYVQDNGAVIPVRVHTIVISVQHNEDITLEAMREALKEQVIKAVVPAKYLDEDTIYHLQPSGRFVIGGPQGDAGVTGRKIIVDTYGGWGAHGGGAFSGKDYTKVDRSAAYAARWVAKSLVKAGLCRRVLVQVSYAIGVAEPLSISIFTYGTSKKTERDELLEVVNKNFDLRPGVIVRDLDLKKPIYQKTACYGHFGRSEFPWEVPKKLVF

C[S+](CC[C@H](N)C(=O)O)C[C@H]1O[C@@H](n2cnc3c(N)ncnc32)[C@H](O)[C@@H]1O (stereo partly drawn) [SAMe, S-adenosylmethionine]
reduction of MAT2A expression [1]: 40%
increase of intracellular MTA levels after SAMe treatment ([2]; 5 mM SAMe for 16 hrs): 19 fold
intracellular MTA levels after SAMe treatment ([2]; 5 mM SAMe for 16 hrs): 1,906%
MTA level ([2]; 6 hrs, SAMe 2 mM): 0.192 ± 0.036 nmol/mg protein
SAMe level ([2]; 6 hrs, SAMe 2 mM): 1.44 ± 0.13 nmol/mg protein
MTA level ([2]; 6 hrs, SAMe 5 mM): 0.354 ± 0.096 nmol/mg protein
SAMe level ([2]; 6 hrs, SAMe 5 mM): 2.19 ± 0.21 nmol/mg protein
MTA level ([2]; 16 hrs, SAMe 2 mM): 0.261 ± 0.035 nmol/mg protein
SAMe level ([2]; 16 hrs, SAMe 2 mM): 1.28 ± 0.01 nmol/mg protein
MTA level ([2]; 16 hrs, SAMe 5 mM): 0.934 ± 0.105 nmol/mg protein
SAMe level ([2]; 16 hrs, SAMe 5 mM): 1.83 ± 0.01 nmol/mg protein
Putrescine ([3]; SAMe 2 mM): 0.06 ± 0.01 nmol/mg protein
Spermidine ([3]; SAMe 2 mM): 2.37 ± 0.02 nmol/mg protein
Spermine ([3]; SAMe 2 mM): 12.39 ± 2.86 nmol/mg protein
Putrescine ([3]; SAMe 5 mM): 0.01 ± 0.01 nmol/mg protein
Spermidine ([3]; SAMe 5 mM): 1.90 ± 0.18 nmol/mg protein
Spermine ([3]; SAMe 5 mM): 13.21 ± 2.58 nmol/mg protein
SPD syn expression ([4]; SAMe 2 mM): 1.1 ± 0.02 fold of control
SPD syn expression ([4]; SAMe 5 mM): 0.8 ± 0.02 fold of control
c-FLIP mRNA level [5]: 70±2 % of control
Bcl-xL mRNA level [6]: did not have an effect
SAMe level in proximal small intestine [7]: 800 % of control
increase in SAMe level in colonic mucosa [7]: ~200%
inhibition of MAT2β expression [8]: 50%
tolerability / toxicity [9]: well tolerated; also recorded: no apparent toxicity
Inhibition by SAMe ([10]; MAT III): No
stimulation of MAT III ([10]; at 500 μM SAMe): up to 8 fold
